Test system: HepG2 cells
Assay: LC-MS/MS targeted intracellular metabolomics
Assay type: cell-based, human
Conditions: Suppl Fig 9; C3 (EC15 ATP), 48 h; Bezafibrate lines = Plates 1-6 in order
Description: Metabolite profiling of cells was performed directly in the same 96-well plate according to a standardized protocol described below. In order to prevent any interaction with the cell material, the automatic sampler was adjusted to pick up the sample from the supernatant at a specified depth avoiding the contact with the bottom of the plate.
After the initial quenching step (50 μL isopropanol 80%), additional 70 μL of isopropanol 80%, containing internal standards (methionine-D3, tryptophan-D5, arginine-13C6-15N4, Boc-Ala-Gly-Gly-Gly-OH, coenzyme Q1, coenzyme Q2, coenzyme Q4) were added to each well. The internal standards were used for quality control by visual inspection (signal intensity, peak shape, retention time); they were not used for normalization. Afterwards, plates were shaken for 5 min, 750 rpm at 20 °C, and placed for 30 s in the ultrasonic device. Then, the plates were centrifugated for 10 min, at 5485 g, 15 °C. Further, 2.5 μL of the extract were injected each for reversed-phase and hydrophilic interaction liquid chromatography followed by MS/MS detection (AB Sciex QTrap 6500+) using the positive and negative ionization mode. For reverse-phase high-performance liquid chromatography (RP-HPLC, Ascentis Express C18, 5 cm × 2.1 mm, 2.7 μm Supelco), gradient elution was performed with mobile phase A, water/methanol/0.1 M ammonium formate (1:1:0.02, w/w), and B, methyl-tert-butylether/2-propanol/methanol/0.1 M ammonium formate/formic acid (4:2:1:0.07:0.035, w/w) 5.9 min linear gradient: 0 min 100% A, 0.5 min 75% A, 5.9 min 10% A; followed by 0% A until 6.7 min; re-equilibration at 100% A until 7.7 min; flow rate 600 μL/min; column temperature 40 °C HILIC (ZIC-HILIC, 2.1 × 100 mm, 3.5 μm, Supelco) gradient elution was performed with mobile phase C, acetonitrile/water (99:1, v/v) with 0.2% (v) acetic acid, and D, 7 mM ammonium acetate with 0.2% (v) acetic acid (5.0 min linear gradient: 0 min 100% C, 5 min 10% C; followed by a linear gradient back to 100%C until 6.5 min; re-equilibration at 100% C until 7.5 min; flow rate 600 μL/min; column temperature 40 °C.). Two LC-MS systems with identical configuration were used for the analysis. Normalization to lyophilized reference samples (see below) was used to compensate for variation from between analytical batches. The efficiency of this normalization procedure was checked by principal component analysis (PCA), confirming that Pool samples from different analytical batches clustered together.
Reference samples derived from lyophilized untreated HepG2 cells (technical control samples) were measured in parallel throughout the entire analytical process. Data were normalized against the median of these lyophilized HepG2 cells reference samples, to give normalized ratios (performed for each sample per metabolite). This compensated for inter- and intra-instrumental variation. To correct for small differences in cell numbers within and between different treatment groups, data were also normalized to the within sample median, as described in detail by (Ramirez et al. [2018]). For intracellular metabolomic analysis, the median of each sample was calculated across all the 221 measured metabolites.
To generate metabolic profiles for the different treatments, heteroscedastic t test (Welch test) was applied to log-transformed normalized metabolite data to compare treated groups with their respective controls.
Principal component analysis (PCA) and hierarchical clustering (HCA) analyses were performed using R software environment (https://www.r-project.org/). PCA was conducted using the ropls package (Thévenot et al. [2015]) with log10-transformed input data and standard scaling. HCA was performed using the pvclust package (Suzuki et al. [2019]), (https://CRAN.R-project.org/package=pvclust). Input: log10(Ratio), clustering method: Ward D2, distance method: Manhattan, bootstrapping: 10000 times.

Compound: O=C(O)c1cc(Oc2ccc(C(F)(F)F)cc2Cl)ccc1[N+](=O)[O-] [Acifluorfen]
- 2'-Deoxycytidine level vs controls: 0.56
- 5-Hydroxytryptophan level vs controls: 0.74
- Carnitine level vs controls: 0.98
- Ceramide (d18:1.C20:0) level vs controls: 0.74
- Ceramide (d18:1.C24:1) level vs controls: 0.72
- Ceramide (d18:1.C24:2) level vs controls: 0.68
- Ceramide (d18:2.C24:1) level vs controls: 0.64
- Choline plasmalogen (C36:4) level vs controls: 0.75
- Choline plasmalogen (C36:5) level vs controls: 0.70
- Creatine level vs controls: 0.87
- Glycerol-3-phosphate level vs controls: 0.90
- Hexanoylcarnitine level vs controls: 0.70
- Ketoleucine level vs controls: 0.80
- Lysophosphatidylcholine (C14:0) level vs controls: 1.75
- Lysophosphatidylcholine (C16:0) level vs controls: 1.17
- Lysophosphatidylcholine (C16:1) level vs controls: 1.22
- Lysophosphatidylcholine (C20:4) level vs controls: 0.94
- Lysophosphatidylcholine (C24:0) level vs controls: 1.25
- Lysophosphatidylcholine (C24:1) level vs controls: 1.00
- Lysophosphatidylethanolamine (C16:0) level vs controls: 1.67
- Lysophosphatidylethanolamine (C18:0) level vs controls: 1.69
- Lysophosphatidylethanolamine (C18:1) level vs controls: 1.09
- N-Acetylaspartate level vs controls: 1.50
- Pantothenic acid level vs controls: 0.68
- Phosphatidylcholine (C32:0) level vs controls: 0.82
- Phosphatidylcholine (C34:1) level vs controls: 0.81
- Phosphatidylcholine (C34:3) level vs controls: 1.23
- Phosphatidylcholine (C36:1) level vs controls: 0.76
- Phosphatidylcholine (C36:2) level vs controls: 0.78
- Phosphatidylcholine (C36:3) level vs controls: 0.82
- Phosphatidylcholine (C36:4) level vs controls: 0.66
- Phosphatidylcholine (C36:5) level vs controls: 0.71
- Phosphatidylethanolamine (C36:3) level vs controls: 0.86
- Phosphatidylethanolamine (C38:3) level vs controls: 1.05
- Phosphatidylethanolamine (C38:5) level vs controls: 0.82
- Phosphatidylethanolamine (C38:6) level vs controls: 0.91
- Phosphatidylethanolamine (C40:7) level vs controls: 0.68
- Phosphocholine level vs controls: 0.79
- Propionylcarnitine level vs controls: 0.79
- S-Adenosylhomocysteine level vs controls: 0.84
- Sphingomyelin (d32:2) level vs controls: 0.65
- Sphingomyelin (d33:1) level vs controls: 0.93
- Sphingomyelin (d34:0) level vs controls: 1.12
- Sphingomyelin (d35:1) level vs controls: 0.85
- Sphingomyelin (d36:1) level vs controls: 0.84
- Sphingomyelin (d36:2) level vs controls: 0.76
- Sphingomyelin (d37:1) level vs controls: 0.89
- Sphingomyelin (d38:1) level vs controls: 0.89
- Sphingomyelin (d38:2) level vs controls: 0.83
- Sphingomyelin (d39:1) level vs controls: 1.01
- Sphingomyelin (d40:2) level vs controls: 0.87
- Sphingomyelin (d41:2) level vs controls: 0.90
- Sphingomyelin (d42:2) level vs controls: 0.85
- Taurine level vs controls: 0.61
- Triacylglycerol (C34:1.C18:3) level vs controls: 1.73
- Triacylglycerol (C34:2.C18:0) level vs controls: 2.66
- Triacylglycerol (C34:2.C18:1) level vs controls: 2.04
- Triacylglycerol (C36:4.C16:0) level vs controls: 1.86
- Triacylglycerol (C36:4.C18:0) level vs controls: 2.14

Compound: Cc1cccc(Nc2cc(Cl)nc(SCC(=O)O)n2)c1C [Wy-14643]
- 2'-Deoxycytidine level vs controls: 0.75
- 5-Hydroxytryptophan level vs controls: 0.85
- Carnitine level vs controls: 0.99
- Ceramide (d18:1.C20:0) level vs controls: 0.66
- Ceramide (d18:1.C24:1) level vs controls: 0.92
- Ceramide (d18:1.C24:2) level vs controls: 0.71
- Ceramide (d18:2.C24:1) level vs controls: 0.97
- Choline plasmalogen (C36:4) level vs controls: 1.00
- Choline plasmalogen (C36:5) level vs controls: 1.03
- Creatine level vs controls: 0.85
- Glycerol-3-phosphate level vs controls: 0.72
- Hexanoylcarnitine level vs controls: 0.93
- Ketoleucine level vs controls: 0.86
- Lysophosphatidylcholine (C14:0) level vs controls: 1.51
- Lysophosphatidylcholine (C16:0) level vs controls: 1.26
- Lysophosphatidylcholine (C16:1) level vs controls: 1.06
- Lysophosphatidylcholine (C20:4) level vs controls: 1.28
- Lysophosphatidylcholine (C24:0) level vs controls: 1.50
- Lysophosphatidylcholine (C24:1) level vs controls: 1.20
- Lysophosphatidylethanolamine (C16:0) level vs controls: 1.18
- Lysophosphatidylethanolamine (C18:0) level vs controls: 1.26
- Lysophosphatidylethanolamine (C18:1) level vs controls: 1.12
- N-Acetylaspartate level vs controls: 1.22
- Pantothenic acid level vs controls: 0.74
- Phosphatidylcholine (C32:0) level vs controls: 0.81
- Phosphatidylcholine (C34:1) level vs controls: 0.91
- Phosphatidylcholine (C34:3) level vs controls: 1.04
- Phosphatidylcholine (C36:1) level vs controls: 0.96
- Phosphatidylcholine (C36:2) level vs controls: 0.86
- Phosphatidylcholine (C36:3) level vs controls: 0.93
- Phosphatidylcholine (C36:4) level vs controls: 0.98
- Phosphatidylcholine (C36:5) level vs controls: 0.92
- Phosphatidylethanolamine (C36:3) level vs controls: 0.82
- Phosphatidylethanolamine (C38:3) level vs controls: 0.92
- Phosphatidylethanolamine (C38:5) level vs controls: 0.89
- Phosphatidylethanolamine (C38:6) level vs controls: 0.96
- Phosphatidylethanolamine (C40:7) level vs controls: 0.92
- Phosphocholine level vs controls: 0.91
- Propionylcarnitine level vs controls: 0.97
- S-Adenosylhomocysteine level vs controls: 1.03
- Sphingomyelin (d32:2) level vs controls: 0.79
- Sphingomyelin (d33:1) level vs controls: 1.13
- Sphingomyelin (d34:0) level vs controls: 1.04
- Sphingomyelin (d35:1) level vs controls: 0.99
- Sphingomyelin (d36:1) level vs controls: 0.90
- Sphingomyelin (d36:2) level vs controls: 0.97
- Sphingomyelin (d37:1) level vs controls: 0.81
- Sphingomyelin (d38:1) level vs controls: 0.84
- Sphingomyelin (d38:2) level vs controls: 0.74
- Sphingomyelin (d39:1) level vs controls: 0.94
- Sphingomyelin (d40:2) level vs controls: 0.81
- Sphingomyelin (d41:2) level vs controls: 0.79
- Sphingomyelin (d42:2) level vs controls: 0.79
- Taurine level vs controls: 0.97
- Triacylglycerol (C34:1.C18:3) level vs controls: 1.01
- Triacylglycerol (C34:2.C18:0) level vs controls: 1.14
- Triacylglycerol (C34:2.C18:1) level vs controls: 1.01
- Triacylglycerol (C36:4.C16:0) level vs controls: 1.09
- Triacylglycerol (C36:4.C18:0) level vs controls: 1.18
